From PubChem BioAssay (NCI)
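Exposure lasted 48 hours, with cells grown in 96-well plates and compounds tested at five concentrations. TGI denotes the concentration required for complete inhibition of growth.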

Columns and labels:
Experiment in all cases: DTP human tumour cell line panel, 48 h
SK-OV-3 ovarian = system: SK-OV-3 ovarian
IGROV1 ovarian = system: IGROV1 ovarian
RXF 393 renal = system: RXF 393 renal
A549 NSCLC = system: A549 NSCLC
HT29 colon = system: HT29 colon
SF-268 CNS = system: SF-268 CNS
LOX IMVI melanoma = system: LOX IMVI melanoma
SK-MEL-28 melanoma = system: SK-MEL-28 melanoma
NCI-H23 lung = system: NCI-H23 lung
EKVX NSCLC = system: EKVX NSCLC
MALME-3M melanoma = system: MALME-3M melanoma
SF-539 CNS = system: SF-539 CNS
HOP-62 NSCLC = system: HOP-62 NSCLC
NCI-H522 lung = system: NCI-H522 lung
NCI/ADR-RES ovarian = system: NCI/ADR-RES ovarian
UACC-62 melanoma = system: UACC-62 melanoma
PC-3 prostate = system: PC-3 prostate
HCT-116 colon = system: HCT-116 colon
CCRF-CEM leukemia = system: CCRF-CEM leukemia
K-562 leukemia = system: K-562 leukemia
TK-10 renal = system: TK-10 renal
KM12 colon = system: KM12 colon
OVCAR-5 ovarian = system: OVCAR-5 ovarian
786-0 renal = system: 786-0 renal
OVCAR-8 ovarian = system: OVCAR-8 ovarian
MCF7 breast = system: MCF7 breast
T-47D breast = system: T-47D breast
MOLT-4 leukemia = system: MOLT-4 leukemia
UACC-257 melanoma = system: UACC-257 melanoma
MDA-N = system: MDA-N
RPMI-8226 leukemia = system: RPMI-8226 leukemia
SNB-19 CNS = system: SNB-19 CNS
HCC-2998 colon = system: HCC-2998 colon
OVCAR-3 ovarian = system: OVCAR-3 ovarian
HS 578T breast = system: HS 578T breast
COLO 205 colon = system: COLO 205 colon
MDA-MB-231 breast = system: MDA-MB-231 breast
NCI-H226 lung = system: NCI-H226 lung
HL-60(TB) leukemia = system: HL-60(TB) leukemia
OVCAR-4 ovarian = system: OVCAR-4 ovarian
U251 CNS = system: U251 CNS
HOP-92 NSCLC = system: HOP-92 NSCLC
UO-31 renal = system: UO-31 renal
DU-145 prostate = system: DU-145 prostate
SN12C renal = system: SN12C renal
BT-549 breast = system: BT-549 breast
ACHN renal = system: ACHN renal
MDA-MB-435 = system: MDA-MB-435
HCT-15 colon = system: HCT-15 colon
SF-295 CNS = system: SF-295 CNS
CAKI-1 renal = system: CAKI-1 renal
M14 melanoma = system: M14 melanoma
SW-620 colon = system: SW-620 colon
SK-MEL-5 melanoma = system: SK-MEL-5 melanoma
SR leukemia = system: SR leukemia
NCI-H460 lung = system: NCI-H460 lung
A498 renal = system: A498 renal
SNB-75 CNS = system: SNB-75 CNS
SK-MEL-2 melanoma = system: SK-MEL-2 melanoma

CCOC(=O)C1=C(C)NC(C)=C(C(=O)OCCNC(=O)c2ccc(N=[N+]=[N-])cc2)C1c1ccccc1C(F)(F)F (stereo unspecified) gave a TGI (SK-OV-3 ovarian) of 21.5 µM, a TGI (IGROV1 ovarian) of 21.5 µM and a TGI (RXF 393 renal) of 21.5 µM. It also gave a TGI (A549 NSCLC) of 21.5 µM, a TGI (HT29 colon) of 21.5 µM and a TGI (SF-268 CNS) of 21.5 µM. The TGI (LOX IMVI melanoma) was over 31.6 µM, the TGI (SK-MEL-28 melanoma) was 21.5 µM and the TGI (NCI-H23 lung) was 21.5 µM. The TGI (EKVX NSCLC) was 21.5 µM, the TGI (MALME-3M melanoma) was 21.5 µM and the TGI (SF-539 CNS) was over 31.6 µM. It also gave a TGI (HOP-62 NSCLC) of over 21.5 µM, a TGI (NCI-H522 lung) of 19.3 µM and a TGI (NCI/ADR-RES ovarian) of 21.5 µM. The TGI (UACC-62 melanoma) was 21.5 µM, the TGI (PC-3 prostate) was 21.5 µM and the TGI (HCT-116 colon) was 21.5 µM. The TGI (CCRF-CEM leukemia) was 21.5 µM, the TGI (K-562 leukemia) was 21.5 µM and the TGI (TK-10 renal) was 31.1 µM. For the same molecule, the TGI (KM12 colon) was 21.5 µM, the TGI (OVCAR-5 ovarian) was 21.5 µM and the TGI (786-0 renal) was 21.5 µM. The TGI (OVCAR-8 ovarian) was 21.5 µM, the TGI (MCF7 breast) was 12.2 µM and the TGI (T-47D breast) was 21.5 µM. The TGI (MOLT-4 leukemia) was 13.5 µM, the TGI (UACC-257 melanoma) was 21.5 µM and the TGI (MDA-N) was 21.5 µM. It also gave a TGI (RPMI-8226 leukemia) of 18.9 µM, a TGI (SNB-19 CNS) of 21.5 µM and a TGI (HCC-2998 colon) of 21.5 µM. The TGI (OVCAR-3 ovarian) was 21.5 µM, the TGI (HS 578T breast) was 21.5 µM and the TGI (COLO 205 colon) was 11 µM. It also gave a TGI (MDA-MB-231 breast) of 21.5 µM, a TGI (NCI-H226 lung) of 21.5 µM and a TGI (HL-60(TB) leukemia) of 14.7 µM. The TGI (OVCAR-4 ovarian) was 21.5 µM, the TGI (U251 CNS) was 21.5 µM and the TGI (HOP-92 NSCLC) was 18.9 µM. It also gave a TGI (UO-31 renal) of 21.5 µM, a TGI (DU-145 prostate) of 21.5 µM and a TGI (SN12C renal) of 21.5 µM. It also gave a TGI (BT-549 breast) of 68.2 µM, a TGI (ACHN renal) of 21.5 µM and a TGI (MDA-MB-435) of 20.5 µM. For the same molecule, the TGI (HCT-15 colon) was 21.5 µM, the TGI (SF-295 CNS) was 21.5 µM and the TGI (CAKI-1 renal) was 21.5 µM. For the same molecule, the TGI (M14 melanoma) was 21.5 µM, the TGI (SW-620 colon) was 21.5 µM and the TGI (SK-MEL-5 melanoma) was 12.7 µM. The TGI (SR leukemia) was 21.5 µM and the TGI (NCI-H460 lung) was 21.5 µM.

In the case of CN1CN(c2ccccc2)C2(CCN(C3Nc4ccccc4O3)CC2)C1=O (stereo unspecified), the TGI (SK-OV-3 ovarian) is reported as 48.1 µM, the TGI (IGROV1 ovarian) is reported as 58.5 µM and the TGI (RXF 393 renal) is reported as 35.5 µM. For the same molecule, the TGI (A549 NSCLC) was over 100 µM, the TGI (HT29 colon) was 33 µM and the TGI (SF-268 CNS) was 61 µM. For the same molecule, the TGI (LOX IMVI melanoma) was 26.8 µM, the TGI (SK-MEL-28 melanoma) was 47.2 µM and the TGI (NCI-H23 lung) was 54.9 µM. It also gave a TGI (MALME-3M melanoma) of 38 µM, a TGI (SF-539 CNS) of 28.9 µM and a TGI (HOP-62 NSCLC) of 31.1 µM. For the same molecule, the TGI (NCI-H522 lung) was 39.2 µM, the TGI (NCI/ADR-RES ovarian) was 56.1 µM and the TGI (UACC-62 melanoma) was 31 µM. It also gave a TGI (PC-3 prostate) of 45.2 µM, a TGI (HCT-116 colon) of 29.8 µM and a TGI (CCRF-CEM leukemia) of 57.6 µM. For the same molecule, the TGI (K-562 leukemia) was over 100 µM, the TGI (A498 renal) was 42.1 µM and the TGI (TK-10 renal) was 46.3 µM. The TGI (KM12 colon) was 51.5 µM, the TGI (OVCAR-5 ovarian) was 48.2 µM and the TGI (786-0 renal) was 49.6 µM. The TGI (OVCAR-8 ovarian) was 82.1 µM, the TGI (MCF7 breast) was 38.6 µM and the TGI (T-47D breast) was 58.8 µM. It also gave a TGI (MOLT-4 leukemia) of 92.2 µM, a TGI (UACC-257 melanoma) of 33.7 µM and a TGI (MDA-N) of 49.1 µM. For the same molecule, the TGI (RPMI-8226 leukemia) was 58 µM, the TGI (SNB-19 CNS) was 74.4 µM and the TGI (OVCAR-3 ovarian) was 31.7 µM. It also gave a TGI (HS 578T breast) of 37.7 µM, a TGI (COLO 205 colon) of 30.1 µM and a TGI (MDA-MB-231 breast) of 44.6 µM. The TGI (NCI-H226 lung) was 50.3 µM, the TGI (HL-60(TB) leukemia) was 43.5 µM and the TGI (U251 CNS) was 33.3 µM. For the same molecule, the TGI (UO-31 renal) was 69.8 µM, the TGI (DU-145 prostate) was 60.1 µM and the TGI (SN12C renal) was 34.7 µM. For the same molecule, the TGI (BT-549 breast) was 37.3 µM, the TGI (SNB-75 CNS) was 62.3 µM and the TGI (ACHN renal) was 55.9 µM. For the same molecule, the TGI (MDA-MB-435) was 42.1 µM, the TGI (HCT-15 colon) was 28.8 µM and the TGI (SF-295 CNS) was 33.6 µM. The TGI (CAKI-1 renal) was over 100 µM, the TGI (M14 melanoma) was 46.2 µM and the TGI (SW-620 colon) was over 100 µM. For the same molecule, the TGI (SK-MEL-5 melanoma) was 32 µM, the TGI (SR leukemia) was over 100 µM and the TGI (SK-MEL-2 melanoma) was 28.3 µM. It also gave a TGI (NCI-H460 lung) of 43.9 µM.
